The text below walks through data of PMC8253137, “Microbiota-derived butyrate is an endogenous HIF prolyl hydroxylase inhibitor” (Gut Microbes, 2021).

The target in data set [1] is T1, PHD2_181-402 (Homo sapiens, UniProt Q9GZT9). The experiment in a line: PHD2_181-402 inhibition assay (bioluminescent succinate detection, Succinate-Glo). The data set is classed as biochemical. The settings on record: for IC50: read-out: True IC50; for fold less effective at inhibiting PHD2_181-402 (compared to butyrate): relative to butyrate true IC50. The protocol: PHD2_181-402 activity and inhibition assays were performed with the Succinate-Glo JmjC Demethylase/Hydroxylase Assay Kit (Promega) according to manufacturer protocol and as detailed in Alves et al. […] The enzymatic reaction was incubated at room temperature for 10 minutes, after which succinate formation was detected according to manufacturer protocol. […] Then, 20 µL of Succinate Detection Reagent II was added to the reactions and incubated for 10 min at room temperature before the luciferase-generated luminescence was recorded on a plate-reading luminometer. Succinate standard curves were used to determine the sensitivity and linear range of the bioluminescent succinate detection. […] Succinate standards were serially diluted two-fold from 15 µM to 58.6 nM and a 0 succinate blank. 10 µL of succinate standards were used for detection as described above. […] Reactions were incubated at room temperature for 10 minutes and succinate detected. […] Measured IC50s were calculated from fitting the percentage activity data to the [Inhibitor] vs. normalized response – variable slope least squares nonlinear regression in GraphPad Prism 9. True IC50s were calculated from measured IC50s with the equation derived by Wu et al.[26] describing the relationship between the measured IC50 of an inhibitor and the percentage of substrate conversion.

Data set [2] relates to T84 cells. In words: Butyrate metabolism and oxygen consumption in T84 cells. The data set is classed as cell-based. The procedure: (§1) T84 cells were cultured in 95% air with 5% CO2 at 37°C in standard media made of DMEM:F-12 supplemented with 10% calf serum, 1% penicillin/streptomycin, and 1% GlutaMAX™ (ThermoFisher Scientific) on 9.6 cm^2 6-well plates (ThermoFisher Scientific). Real-time oxygen sensing was done using the SensorDish Reader from Applikon Biotechnology as described previously with T84 cells plated on 0.33 cm^2 transwell inserts (Corning, 0.4 μm).[12] All MCPA treatments included a 2 h pretreatment with MCPA before treatment with butyrate.
(§2) Metabolites Extractions and HPLC-DAD: Cell and colon tissue metabolites were extracted and analyzed as previously described with minor variations.[61],[62] The metabolites were detected by absorption at wavelengths of 210, 254, and 280 nm, with their absorbance spectra and retention times verified by co-injection with authentic standards. Metabolites for HPLC-ESI MS analyses were resuspended in deionized water (pH 7.2).

Data set [3] deals with murine colon tissue. In words: Tributyrin oral gavage in antibiotic-treated SCFA-depleted mice. It is filed as in vivo. The protocol: (§3) C57BL/6 mice were purchased from Jackson Laboratories. Animals were maintained and bred in standard housing conditions under 24 h/day, 7 days/week veterinary care available at the University of Colorado Anschutz Medical Campus (AMC) animal facility. All animal procedures were reviewed and approved by the Institutional Animal Care and Use Committee at AMC. 8 to 10-week-old male and female mice were pre-administered an antibiotic cocktail consisting of 1 mg/mL ampicillin, gentamicin, and neomycin, 0.5 mg/mL vancomycin, and 0.25 mg/mL metronidazole for 5 d ad libitum in addition to water control mice. Mice were then given 200 µL of tributyrin daily for three days using reusable feeding needles (18060–20, Fine Science Tools). On the third day, 4 h prior to sacrifice, select mice given tributyrin were rectally given 100 μL of 60 mM MCPA with plastic gavage tubes (FTP-20-38-50, Instech) inserted 1 cm into the rectum without surgical lubricant. Whole colon tissue at the site of the rectal gavage was collected for metabolite analysis, while colon whole tissue and epithelial scrapings upstream from the gavage site was collected for RNA and protein analysis. In the second butyrate reconstitution experiment, mice were rectally given 100 μL of 100 mM butyrate, 100 mM butyrate with 10 mM MCPA, 1.5 mM IOX2, or PBS control under anesthesia. Mice were then sacrificed 1 h after rectal supplementation and colon tissues collected for metabolite, mRNA, and protein analysis from the site of the rectal gavage.
(§4) TRIzol® reagent (ThermoFisher Scientific) was used to isolate total RNA from T84 cells. Mouse colon tissue samples were harvested into RNAlater™ (Invitrogen) and stored at 4°C for 48 h. Total RNA was isolated from the tissues using RNeasy Plus Mini Kit (Qiagen). cDNA was prepared using the iScript cDNA Synthesis Kit (Bio-Rad). Quantitative PCR analysis was performed using the Power SYBR™ Green master mix (Applied Biosystems) in a thermocycler. Fold change in expression of target mRNA relative to β-actin (ACTB) mRNA was calculated using the delta-delta Ct method. Primer sequences used are as follows: hBNIP3 – forward, 5′- […] −3′, reverse, 5′- […] −3′; hBNIP3L – forward, 5′- […] −3′, reverse, 5′- […] −3′; hGLUT1 – forward, 5′- […] −3′, reverse, 5′- […] −3′; hACTB – forward, 5′- […]-3′, reverse, 5′- […]-3′; mBnip3 – forward, 5′- […] −3′, reverse, 5′- […] −3′; mBnip3l – forward, 5′- […] −3′, reverse, 5′- […] −3′; mGlut1 – forward, 5′- […] −3′, reverse, 5′- […] −3′; and mActb – forward, 5′- […] −3′, reverse, 5′- […] −3′.
(§5) T84 cells were rinsed with PBS and collected and lysed in 200 µL of radioimmunoprecipitation assay (RIPA, 50 mM Tris-HCl pH 8.0, 1 mM EDTA, 1% Triton X-100, […], 0.5% sodium deoxycholate, 150 mM NaCl) buffer with protease inhibitors on ice. Mouse colon samples were harvested into 350 µL of RIPA buffer and flash frozen in liquid nitrogen. Samples were homogenized by sonication, and insoluble materials removed by centrifugation at 10,000 g for 5 min at 4°C. Protein quantity of the supernatant was determined using the Bradford reagent. Laemmli sample buffer was added to each sample. Samples (20 µg) were run and separated on 8% SDS-PAGE gels and transferred to polyvinylidene fluoride (PVDF) membranes. Membranes were blocked overnight at 4°C in Tris-buffered saline with 1% Tween-20 (TBS-T) and 5% milk. […]

Another data set concerns rat hepatocytes. The arrangement: method as in PMID 9124539. Particulars: cited from earlier work.
Data set [4] has as its target T1, PHD2_181-402. The experiment in a line: WaterLOGSY 1D NMR binding. Particulars: 10 mM ligand, 25 μM PHD2_181-402. An excerpt: Next, we established whether butyrate binds directly to PHD2_181-402 using 1D WaterLOGSY NMR.[28] This method enables sensitive and robust detection of binding (dissociation constants as weak as μM to low mM) based on the magnetization transfer between water molecules, proteins, and ligands of interest in close proximity via dipolar proton–proton cross-relaxation (nuclear Overhauser effect, NOE). […] Binding and non-binding ligands can be distinguished in a WaterLOGSY spectrum via their opposite signs in relation to water for their corresponding peaks.
Following an established protocol, all NMR analyses were performed using PHD2_181-402 and the diamagnetic element (Zn^2+) rather than a paramagnetic element such as Fe^2+ that would result in inhibitive signal reduction or loss due to fast relaxation induced by the unpaired electron.[63]
Water-Ligand Observed via Gradient SpectroscopY (WaterLOGSY): Measurements were carried out on a 600 MHz triple-resonance Bruker cryoprobe spectrometer.[28] Selective water inversion was achieved using an iBURP shaped pulse with 15 ms length and an inversion bandwidth of 0.4 ppm. The mixing time was set to 1 s, and the water was suppressed using double Watergate. 1024 scans were acquired with an interscan delay of 2 s. The sample concentration was 25 µM of PHD2_181-402 mixed with 10 mM of the different ligands in NMR buffer (Tris 50 mM, NaCl 20 mM, ZnCl2 100 μM) at pH 6.5.

For a further data set, the system named is HDACs. Also on record: method as in PMID 18061431, PMID 30052654. Particulars: cited from earlier work.
Details of data set [5]: method as in PMID 10321503. Particulars: mice, oral gavage with tributyrin, 1 h after dosing; cited from earlier work.
The subject of data set [6] is T84 cells. The experiment in a line: 2-OG levels in T84 cells. It is filed as cell-based. The settings on record: 3 h, 10 mM butyrate or 30 μM IOX2. The protocol: as §1, §2
HPLC-ESI MS: Analyses were performed on an Agilent Technologies 1260 Infinity II LC/MSD iQ with electrospray ionization (ESI) mass detection. Negative ion mass-to-charge ratios (m/z) were scanned from 50 to 500. The metabolite extracts were chromatographed using a Sepax Carbomix column (Pb-Np5:8%, 5 μm, non-porous, 4.6 × 300 mm) (mobile phase A: water; mobile phase B: acetonitrile; column temperature, 75°C). Chromatographic separation was performed using a combination of isocratic and gradient methods, including column washing and equilibration periods at the end (0 min: 100% A, 0.12 mL/min; 60 min: 100% A, 0.12 mL/min; 70 min: 70% A, 0.5 mL/min; 145 min: 70% A, 0.5 mL/min; 150 min: 100% A, 0.5 mL/min; 164 min, 100% A, 0.5 mL/min; 165 min, 100% A, 0.12 mL/min; 170 min, 100% A, 0.12 mL/min).

For data set [7], the system named is murine colon tissue. The experiment in a line: Rectal gavage in antibiotic-treated SCFA-depleted mice. The data set is classed as in vivo. The settings on record: rectal 100 mM butyrate or 1.5 mM IOX2, 1 h, after antibiotics. The procedure:
as §3, §4, §5

[8] abbreviates: 1 μM PHD2_181-402, 10 μM 2-OG, 10 μM Fe(II), 10 μM HIF-1α547-581 peptide, 100 μM ascorbic acid, 10-minute reaction, calculated from measured IC50 accounting for substrate conversion, error SEM.

Structures are written as SMILES. Read-outs that look alike come from different tables or passages of the source.

T1 sequence (Q9GZT9 181-402): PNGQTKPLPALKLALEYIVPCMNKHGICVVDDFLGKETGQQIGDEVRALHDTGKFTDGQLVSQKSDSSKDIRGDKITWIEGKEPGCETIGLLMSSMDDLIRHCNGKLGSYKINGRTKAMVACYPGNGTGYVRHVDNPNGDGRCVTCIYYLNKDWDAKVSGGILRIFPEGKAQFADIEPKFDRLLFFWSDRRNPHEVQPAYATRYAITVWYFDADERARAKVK

With `COC(=O)CNC(=O)C(=O)OC` [DMOG, dimethyloxalylglycine, reference compound], the IC50 on PHD2_181-402 [1] (setting [8]) is 1.9 ± 0.5 mM. The “change of IC50 with increasing 2-OG” value on PHD2_181-402 [1] (2-OG at 1, 5, 10, 40 or 100 µM) was “increased significantly”.

For the compound `CCC(CC)C(=O)O` [2-Ethylbutyrate], the IC50 at PHD2_181-402 [1] (setting [8]) is 77 ± 6 mM.

For the compound `C=C1CC1CC(=O)O` (stereo not shown) [MCPA, methylene cyclopropyl acetic acid], the butyrate metabolism result with T84 cells [2] (600 μM butyrate with 1 mM MCPA, 0 to 6 h) is listed as “reduced butyrate metabolism”. The butyrate-associated oxygen consumption result with T84 cells [2] (5 mM butyrate with 1 mM MCPA, 30 min) was “eliminated the increase in oxygen consumption”. Further, in the data set with murine colon tissue [3] (60 mM MCPA rectal gavage 4 h in mice given tributyrin), the “colon tissue butyrate level compared to tributyrin alone” value is “significantly increased”. Besides, the “reduction of acetyl-CoA levels” value with rat hepatocytes is reported as 70–90%.

Turning to `CCCCC(=O)O` [Valerate], at PHD2_181-402 [1], the 50% inhibitory concentration (IC50) was determined as 16 ± 3 mM and the “fold less effective at inhibiting PHD2_181-402 (compared to butyrate)” value is recorded as ~ 3 fold. Also, the “binding to PHD2_181-402 (WaterLOGSY signal)” value (from here on “binding … (WaterLOGSY signal)”) on PHD2_181-402 [4] was “no binding”. Moreover, the HDAC inhibition result in the data set with HDACs is recorded as “lesser degrees of HDAC inhibition”.

With `CCC(=O)O` [Propionate], the 50% inhibitory concentration (IC50) on PHD2_181-402 [1] (setting [8]) was 60 ± 10 mM. The “fold less effective at inhibiting PHD2_181-402 (compared to butyrate)” value on PHD2_181-402 [1] is reported as ~ 10 fold. Further, on PHD2_181-402 [4], the “binding … (WaterLOGSY signal)” value is given as “no binding”. The HDAC inhibition result in the data set on HDACs is on record as “lesser degrees of HDAC inhibition”.

Take `CCCC(=O)OCC(COC(=O)CCC)OC(=O)CCC` [tributyrin]: in the data set with murine colon tissue [3] (epithelial scrapings and whole-colon tissue, tributyrin 200 µL, 3 d, with or without MCPA), the HIF-1α protein result is listed as “rescued”. Moreover, in the data set with murine colon tissue [3] (tributyrin 200 µL, 3 d, with or without MCPA), the “colon tissue 2-OG levels” value is “recovered”. Also, the “colon tissue butyrate levels” value with murine colon tissue [3] (tributyrin 200 µL, 3 d, with or without MCPA, versus antibiotics (glycerol control)) is on record as “rescued”. In addition, the “HIF-1α target gene Bnip3l mRNA” value with murine colon tissue [3] (whole-colon tissue and epithelial scrapings, tributyrin 200 µL oral gavage daily for 3 d, with or without 60 mM MCPA rectal 4 h) is reported as “normalized”. The plasma butyrate concentrations in [5] is listed as greater than 1 mM.

Turning to `O=C(O)CNC(=O)c1c(O)c2ccccc2n(Cc2ccccc2)c1=O` [IOX2, reference compound], the “2-OG levels compared to control” value in the data set with T84 cells [6] is given as “lesser extent than butyrate”. Also, the “mRNA expression of HIF-1α targets Bnip3, Bnip3l, Glut1” value in the data set with murine colon tissue [7] (colon tissue) is on record as “rescued”. In the data set on murine colon tissue [7], the “colon tissue 2-OG levels” value is listed as “rescued”.

Consider `CCCCCC(=O)O` [Hexanoate], for which, at PHD2_181-402 [1], the IC50 worked out at 17 ± 3 mM and the “fold less effective at inhibiting PHD2_181-402 (compared to butyrate)” value is listed as ~ 3 fold. In addition, the HDAC inhibition result in the data set on HDACs is given as “lesser degrees of HDAC inhibition”.

As to `CC(O)CC(=O)O` (stereo not shown) [3-Hydroxybutyrate], the IC50 at PHD2_181-402 [1] (setting [8]) was 14 ± 1 mM.

For `CC(=O)O` [Acetate], the half-maximal inhibitory concentration (IC50) at PHD2_181-402 [1] (setting [8]) is 50 ± 10 mM. Moreover, on PHD2_181-402 [1], the “fold less effective at inhibiting PHD2_181-402 (compared to butyrate)” value was ~ 10 fold. In addition, the “binding … (WaterLOGSY signal)” value on PHD2_181-402 [4] is reported as “no binding”. Also, the HDAC inhibition entry in the data set with HDACs is recorded as “none”.
